Test results reported in ChEMBL document CHEMBL1268919, “Berberine derivatives, with substituted amino groups linked at the 9-position, as inhibitors of acetylcholinesterase/butyrylcholinesterase” (Bioorg Med Chem Lett, 2010).
The source made the active and inactive calls. No cut-off for these calls is given here.

What was measured:
Acetylcholinesterase = Acetylcholinesterase (Electrophorus electricus, UniProt O42275)
Description: Inhibition of electric eel AChE after 15 mins by Ellman's method using acetylcholine as substrate

[1] = target: Acetylcholinesterase (Electrophorus electricus) (UniProt O42275); assay: Mixed-type inhibition of electric eel AChE after 15 mins by Lineweaver-Burke plot analysis
Chain of Acetylcholinesterase (Electrophorus electricus) (O42275 24-633 limits assumed): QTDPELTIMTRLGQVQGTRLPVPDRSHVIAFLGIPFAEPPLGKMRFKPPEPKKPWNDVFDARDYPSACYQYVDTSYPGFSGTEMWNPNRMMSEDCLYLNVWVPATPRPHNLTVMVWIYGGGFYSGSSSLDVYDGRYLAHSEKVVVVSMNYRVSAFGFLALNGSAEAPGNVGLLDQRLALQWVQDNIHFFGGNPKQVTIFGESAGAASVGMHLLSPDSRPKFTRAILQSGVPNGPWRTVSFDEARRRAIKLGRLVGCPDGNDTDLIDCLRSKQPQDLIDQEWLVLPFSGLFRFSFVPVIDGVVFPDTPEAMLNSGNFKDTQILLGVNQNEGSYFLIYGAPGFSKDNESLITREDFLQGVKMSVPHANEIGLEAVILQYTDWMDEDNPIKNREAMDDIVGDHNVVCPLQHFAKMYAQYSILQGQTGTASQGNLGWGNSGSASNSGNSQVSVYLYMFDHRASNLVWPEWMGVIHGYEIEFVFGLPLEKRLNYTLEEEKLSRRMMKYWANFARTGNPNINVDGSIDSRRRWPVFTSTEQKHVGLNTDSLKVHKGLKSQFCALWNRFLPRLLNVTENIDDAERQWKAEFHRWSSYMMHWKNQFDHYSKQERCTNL

Chain of Acetylcholinesterase (O42275 whole entry): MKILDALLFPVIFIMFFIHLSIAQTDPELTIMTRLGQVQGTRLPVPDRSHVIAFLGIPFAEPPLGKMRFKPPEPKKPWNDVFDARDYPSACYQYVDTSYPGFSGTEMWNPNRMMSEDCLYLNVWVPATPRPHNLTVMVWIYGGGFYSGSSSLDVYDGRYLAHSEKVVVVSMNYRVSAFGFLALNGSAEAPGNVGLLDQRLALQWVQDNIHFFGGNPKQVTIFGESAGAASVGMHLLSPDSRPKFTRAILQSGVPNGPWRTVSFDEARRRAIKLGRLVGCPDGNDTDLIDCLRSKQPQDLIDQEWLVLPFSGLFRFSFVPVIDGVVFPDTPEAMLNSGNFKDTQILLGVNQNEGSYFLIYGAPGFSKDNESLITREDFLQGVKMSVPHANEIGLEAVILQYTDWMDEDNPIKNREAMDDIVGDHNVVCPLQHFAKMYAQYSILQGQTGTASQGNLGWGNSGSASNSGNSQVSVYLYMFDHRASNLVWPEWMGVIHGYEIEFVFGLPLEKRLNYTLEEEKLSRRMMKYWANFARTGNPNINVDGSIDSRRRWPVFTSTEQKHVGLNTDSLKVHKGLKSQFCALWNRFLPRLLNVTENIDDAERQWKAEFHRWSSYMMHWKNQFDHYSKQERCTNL

Compound	IC50 (Acetylcholinesterase)	inhibition [1]
CCN(CC)CCCOc1c(OC)ccc2cc3[n+](cc12)CCc1cc2c(cc1-3)OCO2	105 nM	
COc1ccc2cc3[n+](cc2c1OCCN1CCOCC1)CCc1cc2c(cc1-3)OCO2	1800 nM	
COc1ccc2cc3[n+](cc2c1OCCCN1CCCCC1)CCc1cc2c(cc1-3)OCO2	52 nM	
COc1ccc2cc3[n+](cc2c1OCCCN(C)C)CCc1cc2c(cc1-3)OCO2	201 nM	
COc1ccc2cc3[n+](cc2c1OCCCO)CCc1cc2c(cc1-3)OCO2	2370 nM	
COc1ccc2cc3[n+](cc2c1OCCCN1CCCC1)CCc1cc2c(cc1-3)OCO2	93 nM	
COc1ccc2cc3[n+](cc2c1OCCCN1CCOCC1)CCc1cc2c(cc1-3)OCO2	456 nM	
COc1ccc2cc3[n+](cc2c1OCCCNC1CCCCC1)CCc1cc2c(cc1-3)OCO2	20 nM	Active
CCCN(CCC)CCCOc1c(OC)ccc2cc3[n+](cc12)CCc1cc2c(cc1-3)OCO2	310 nM	
COc1ccc2cc3[n+](cc2c1OCCN(C)C)CCc1cc2c(cc1-3)OCO2	1740 nM	
